Measured values taken from ChEMBL document CHEMBL1201862, “PubChem BioAssay data set” (2004).
Activity calls are given as the source filed them.

What was measured:
Tumor necrosis factor = Tumor necrosis factor (Homo sapiens, UniProt P01375); experiment: TNFa-triggered NF-kB activation inhibitors, SAR follow-up, cell-based, revised (AID 2337); type: functional
Interleukin-8 = target: T1, Interleukin-8 (Homo sapiens, UniProt P10145); experiment: SAR analysis of tumor necrosis factor alpha (TNF-alpha) induced IL-8 secretion in MCF-7/NOD1 cells. [Related pubchem assays (depositor defined):AID1575, AID2250, AID2260]; type: functional, cell-based
T1 sequence (P10145 whole entry): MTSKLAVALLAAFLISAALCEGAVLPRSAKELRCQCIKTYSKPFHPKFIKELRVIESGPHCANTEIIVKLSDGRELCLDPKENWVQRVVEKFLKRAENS

HEK293 = experiment: cells; conditions: Homo sapiens;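 further: cells exposed to compound for 14 hours overnight before viability readout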
Trypsin = Trypsin (Sus scrofa, UniProt P00761); experiment: porcine trypsin inhibitors, dose response, selectivity assay for Rce1 protease inhibitor project, biochemical, quenched peptide fluorescence, cherry-pick (AID 488789)
Hexokinase = Hexokinase (Trypanosoma brucei, UniProt Q38C41); experiment: Confirmation assay for inhibitors of Trypanosoma brucei hexokinase 1-Analogue-first series. [Related pubchem assays (depositor defined):AID1430, AID1632, AID2516, AID2560, AID2579, AID2600, AID449725, AID492951]; type: functional
BJ [1] = experiment: cytotoxicity toward BJ-TERT fibroblasts, dose response, cell-based, RAS-independent, luminescence (AID 1933); type: functional; conditions: Homo sapiens
BJ [2] = experiment: cytotoxicity toward BJ-TERT-LT-ST fibroblasts, dose response, cell-based, RAS-independent, luminescence (AID 1935); type: functional; conditions: Homo sapiens;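 further: BJ fibroblasts immortalized with TERT plus LT and ST oncogenes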
[3] = target: Envelope glycoprotein gp160 (Human immunodeficiency virus 1, UniProt Q6QLK5); experiment: inhibitors of HIV fusion peptide binding, primary screen, biochemical, uHTS, fluorescence dequenching (AID 1986)
[4] = cytotoxicity toward DRD oncogenic fibroblasts, dose response, cell-based, non-viral oncogenic, luminescence (AID 1934); type: functional; conditions: Homo sapiens
BJ [5] = experiment: cells; type: functional, cell-based; conditions: Homo sapiens
[6] = growth suppression of beta-catenin-knockout colon cells, dose response, cell-based, HCT116, human colon tumor (AID 1045); type: functional;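 further: HCT116 colon tumor cells with beta catenin knocked out; cells exposed to compound for 60 hours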
[7] = target: Sphingosine 1-phosphate receptor 2 (Homo sapiens, UniProt O95136); experiment: Dose Response Cell Based Assay for Antagonists of the S1P2 Receptor. [Related pubchem assays: 856, 736 ]; type: functional
[8] = growth suppression of PTEN-null colon cells, dose response, cell-based, HCT116 PTEN knockout (AID 1047); type: functional;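 further: HCT116 colon tumor cells with PTEN knocked out; cells exposed to compound for 60 hours before readout; potency for loss of cell viability measured by luminescence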
[9] = cytotoxicity in HEK-293T cells, dose response, cytotoxicity control for TCR NF-kB inhibitor project, luminescence, T-cell screen hits (AID 489026); type: functional, cell-based;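 further: cells exposed to compound about 14 hours before the viability readout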
[10] = target: NACHT, LRR and PYD domains-containing protein 3 (Homo sapiens, UniProt Q96P20); experiment: NALP3 inhibitors in yeast, dose response, luminescent (AID 488799); type: functional
[11] = target: T2, Calpain-2 catalytic subunit (Sus scrofa, UniProt P43367); experiment: pig calpain II inhibitor potency, dose response, biochemical, fluorogenic peptide substrate (AID 1420); type: functional
T2 sequence (P43367 whole entry): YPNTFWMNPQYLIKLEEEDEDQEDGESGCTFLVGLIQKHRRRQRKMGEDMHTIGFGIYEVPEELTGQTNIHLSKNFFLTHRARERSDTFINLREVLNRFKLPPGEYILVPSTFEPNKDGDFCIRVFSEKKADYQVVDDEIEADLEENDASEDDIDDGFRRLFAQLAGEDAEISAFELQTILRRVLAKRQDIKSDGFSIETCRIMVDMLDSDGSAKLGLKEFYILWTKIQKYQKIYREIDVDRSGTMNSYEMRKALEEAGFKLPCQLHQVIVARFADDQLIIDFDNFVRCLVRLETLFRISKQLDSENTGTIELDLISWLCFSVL

[12] = target: Cyclin-dependent kinase 5/CDK5 activator 1 (Homo sapiens, UniProt Q00535); experiment: CDK5/p35 kinase inhibitors, dose response, biochemical, cherry-picked samples, set 2 (AID 504545)
Coagulation factor XII = target: T3, Coagulation factor XII (Homo sapiens, UniProt P00748); experiment: FXIIa inhibitor potency, concentration-response, biochemical (AID 716); type: functional
T3 sequence (P00748 whole entry): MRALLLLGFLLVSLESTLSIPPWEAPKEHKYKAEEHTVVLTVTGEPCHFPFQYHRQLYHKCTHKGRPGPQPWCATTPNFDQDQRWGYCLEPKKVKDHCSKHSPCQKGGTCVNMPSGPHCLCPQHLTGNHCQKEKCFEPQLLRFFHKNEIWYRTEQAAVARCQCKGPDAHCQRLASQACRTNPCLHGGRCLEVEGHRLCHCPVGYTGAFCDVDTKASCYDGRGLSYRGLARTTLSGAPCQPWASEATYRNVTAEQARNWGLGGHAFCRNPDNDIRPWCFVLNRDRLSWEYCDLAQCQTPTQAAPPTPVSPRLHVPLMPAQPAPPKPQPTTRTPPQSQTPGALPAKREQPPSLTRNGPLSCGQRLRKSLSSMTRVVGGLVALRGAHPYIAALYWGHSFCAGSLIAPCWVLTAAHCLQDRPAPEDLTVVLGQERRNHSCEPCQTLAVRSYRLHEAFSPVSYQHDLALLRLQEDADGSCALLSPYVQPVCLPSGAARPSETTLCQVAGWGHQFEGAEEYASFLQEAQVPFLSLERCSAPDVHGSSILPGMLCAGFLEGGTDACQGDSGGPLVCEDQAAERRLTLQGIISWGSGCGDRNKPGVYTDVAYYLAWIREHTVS

[13] = Cytotoxicity screening for potential Inhibitors of Bacterial Capsule Biogenesis. [Related pubchem assays (depositor defined):AID488970]; type: functional
[14] = target: Heat shock protein HSP 90-alpha (Homo sapiens, UniProt P07900); type: functional, organism-based
[15] = microbe, parasite or virus in culture; type: functional; conditions: Mycobacterium tuberculosis
[16] = target: T4, Voltage-gated N-type calcium channel alpha-1B subunit/Amyloid beta A4 precursor protein-binding family A member 1 (Homo sapiens, UniProt Q00975+Q02410); type: protein assay
[17] = Fluorescence-based cell-based high throughput dose response assay for inhibitors of the interaction of nucleotide-binding oligomerization domain containing 2 (NOD2) and the receptor-interacting serine-threonine kinase 2 (RIPK2).; type: functional; conditions: Homo sapiens
[18] = target: Luciferin 4-monooxygenase (Photinus pyralis, UniProt P08659); experiment: firefly luciferase enzyme inhibitors, dose response, biochemical, luminescence (AID 1891)
Beta Lactamase = Beta Lactamase (Pseudomonas aeruginosa, UniProt Q932Y6); experiment: beta-lactamase reporter inhibitor potency, dose response, artefact control for NOD2-RIPK2 interaction inhibitor project, BLA reporter cells, FRET fluorescence (AID 651552); type: functional, cell-based
[19] = Luminescence Cell-Based Dose Confirmation HTS to Identify Inhibitors of Platelet Dense Granule Release. [Related pubchem assays: 1663 (Primary HTS), 1678 (Summary of Project)]; type: functional
Beta-galactosidase = Beta-galactosidase (Escherichia coli, UniProt Q8VNN2); experiment: beta-galactosidase enzyme inhibitors and activators, dose response, artefact control for CCR6 antagonist project, biochemical, E. coli enzyme, set 3 (AID 504712); type: functional
[20] = target: T4, Voltage-gated N-type calcium channel alpha-1B subunit/Amyloid beta A4 precursor protein-binding family A member 1; type: protein assay; remark: listed apart in the source
Protein Rev = Protein Rev (Human immunodeficiency virus type 1 group M subtype B (isolate HXB2)(HIV-1), UniProt P04618); experiment: inhibitors of Rev binding to RRE RNA, dose response, biochemical, fluorescence polarization, HIV-1 (AID 434976); design: species or system Human immunodeficiency virus 1
[21] = target: T5, Ubiquitin-conjugating enzyme E2 N (Homo sapiens, UniProt P61088); type: functional
T5 sequence (P61088 whole entry): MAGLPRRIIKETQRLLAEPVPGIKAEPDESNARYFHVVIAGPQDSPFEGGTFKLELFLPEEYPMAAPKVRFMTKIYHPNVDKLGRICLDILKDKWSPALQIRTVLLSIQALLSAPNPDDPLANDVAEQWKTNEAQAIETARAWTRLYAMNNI

[22] = target: Female germline-specific tumor suppressor gld-1 (Caenorhabditis elegans, UniProt Q17339); experiment: inhibitors of GLD-1 binding to TGE RNA, dose response, biochemical, fluorescence polarization, C. elegans (AID 2802);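 further: fluorescence polarization of labeled TGE RNA bound by purified gld-1 protein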
[23] = target: T5, Ubiquitin-conjugating enzyme E2 N; type: functional; remark: listed apart in the source
Bcl-2-related protein A1 = target: T6, Bcl-2-related protein A1 (Mus musculus, UniProt Q07440); type: functional;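 further: confirmatory dose–response counterscreen on Bfl-1, used to check hits from a UBC13 polyubiquitin inhibitor campaign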
T6 sequence (Q07440 whole entry): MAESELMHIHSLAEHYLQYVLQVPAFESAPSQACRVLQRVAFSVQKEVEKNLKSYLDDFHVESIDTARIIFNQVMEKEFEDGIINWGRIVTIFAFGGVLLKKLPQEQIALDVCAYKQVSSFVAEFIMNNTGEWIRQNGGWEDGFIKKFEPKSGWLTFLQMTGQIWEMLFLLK

Vero = experiment: cells; type: functional; conditions: Chlorocebus sabaeus
[24] = Luminescence Cell-Based Dose Response HTS to Identify Activators of Luciferase Translation or Activity in H4-C Neuroglioblastoma Cells. [Related pubchem assays: 1829 (Project Summary), 1814 (Primary HTS)]; type: functional
[25] = Luminescence Cell-Based Dose Retest to Confirm Activators of 5'UTR Stem-Loop Driven Alpha-Synuclein mRNA Translation in H4 Neuroglioblastoma Cells. [Related pubchem assays (depositor defined):AID1813, AID1829]; type: functional
[26] = Luminescence Cell-Based Dose Response HTS to Identify Activators of 5'UTR Stem-Loop Driven Prion Protein mRNA Translation in H4-C Neuroglioblastoma Cells. [Related pubchem assays: 1829 (Project Summary), 1814 (Primary HTS)]; type: functional
[27] = Luminescence Cell-Based Dose Confirmation HTS to Identify Activators of 5'UTR Stem-Loop Driven Alpha-Synuclein mRNA Translation in H4 Neuroglioblastoma Cells. [Related pubchem assays: 1829 (Project Summary), 1814 (Primary HTS)]; type: functional
[28] = Luminescence Cell-Based Dose Response HTS to Identify Activators of Luciferase Translation or Activity in H4 […] Cells. [Related pubchem assays: 1829 (Project Summary), 1814 (Primary HTS)]; type: functional
H4 = experiment: Luminescence Cell-Based Dose Response HTS to Identify Activators of 5'UTR Stem-Loop Driven Prion Protein mRNA Translation in H4 Neuroglioblastoma Cells. [Related pubchem assays: 1829 (Project Summary), 1814 (Primary HTS)]; type: functional; conditions: Homo sapiens
Wee1-like protein kinase = Wee1-like protein kinase (Homo sapiens, UniProt P30291); experiment: G2/M cell cycle arrest in HeLa, late-stage follow-up, mechanism study for Wee1 degradation inhibitor project, FACS, panel member Wee1 Degradation (AID 2088)
[29] = target: G2/mitotic-specific cyclin-B1 (Homo sapiens, UniProt P14635); experiment: G2/M cell cycle arrest in HeLa, late-stage follow-up, mechanism study for Wee1 degradation inhibitor project, FACS, panel member Cyclin B Degradation (AID 2088)
[30] = target: Signal transducer and activator of transcription 3 (Homo sapiens, UniProt P40763); experiment: STAT3 activators, late-stage profile, late-stage follow-up, cell-based, STAT1 reporter, BCL3 qPCR, cytotoxicity, panel member STAT3 Activation (AID 2049)

T4 sequence (Q00975 whole entry, the tested form may be a part): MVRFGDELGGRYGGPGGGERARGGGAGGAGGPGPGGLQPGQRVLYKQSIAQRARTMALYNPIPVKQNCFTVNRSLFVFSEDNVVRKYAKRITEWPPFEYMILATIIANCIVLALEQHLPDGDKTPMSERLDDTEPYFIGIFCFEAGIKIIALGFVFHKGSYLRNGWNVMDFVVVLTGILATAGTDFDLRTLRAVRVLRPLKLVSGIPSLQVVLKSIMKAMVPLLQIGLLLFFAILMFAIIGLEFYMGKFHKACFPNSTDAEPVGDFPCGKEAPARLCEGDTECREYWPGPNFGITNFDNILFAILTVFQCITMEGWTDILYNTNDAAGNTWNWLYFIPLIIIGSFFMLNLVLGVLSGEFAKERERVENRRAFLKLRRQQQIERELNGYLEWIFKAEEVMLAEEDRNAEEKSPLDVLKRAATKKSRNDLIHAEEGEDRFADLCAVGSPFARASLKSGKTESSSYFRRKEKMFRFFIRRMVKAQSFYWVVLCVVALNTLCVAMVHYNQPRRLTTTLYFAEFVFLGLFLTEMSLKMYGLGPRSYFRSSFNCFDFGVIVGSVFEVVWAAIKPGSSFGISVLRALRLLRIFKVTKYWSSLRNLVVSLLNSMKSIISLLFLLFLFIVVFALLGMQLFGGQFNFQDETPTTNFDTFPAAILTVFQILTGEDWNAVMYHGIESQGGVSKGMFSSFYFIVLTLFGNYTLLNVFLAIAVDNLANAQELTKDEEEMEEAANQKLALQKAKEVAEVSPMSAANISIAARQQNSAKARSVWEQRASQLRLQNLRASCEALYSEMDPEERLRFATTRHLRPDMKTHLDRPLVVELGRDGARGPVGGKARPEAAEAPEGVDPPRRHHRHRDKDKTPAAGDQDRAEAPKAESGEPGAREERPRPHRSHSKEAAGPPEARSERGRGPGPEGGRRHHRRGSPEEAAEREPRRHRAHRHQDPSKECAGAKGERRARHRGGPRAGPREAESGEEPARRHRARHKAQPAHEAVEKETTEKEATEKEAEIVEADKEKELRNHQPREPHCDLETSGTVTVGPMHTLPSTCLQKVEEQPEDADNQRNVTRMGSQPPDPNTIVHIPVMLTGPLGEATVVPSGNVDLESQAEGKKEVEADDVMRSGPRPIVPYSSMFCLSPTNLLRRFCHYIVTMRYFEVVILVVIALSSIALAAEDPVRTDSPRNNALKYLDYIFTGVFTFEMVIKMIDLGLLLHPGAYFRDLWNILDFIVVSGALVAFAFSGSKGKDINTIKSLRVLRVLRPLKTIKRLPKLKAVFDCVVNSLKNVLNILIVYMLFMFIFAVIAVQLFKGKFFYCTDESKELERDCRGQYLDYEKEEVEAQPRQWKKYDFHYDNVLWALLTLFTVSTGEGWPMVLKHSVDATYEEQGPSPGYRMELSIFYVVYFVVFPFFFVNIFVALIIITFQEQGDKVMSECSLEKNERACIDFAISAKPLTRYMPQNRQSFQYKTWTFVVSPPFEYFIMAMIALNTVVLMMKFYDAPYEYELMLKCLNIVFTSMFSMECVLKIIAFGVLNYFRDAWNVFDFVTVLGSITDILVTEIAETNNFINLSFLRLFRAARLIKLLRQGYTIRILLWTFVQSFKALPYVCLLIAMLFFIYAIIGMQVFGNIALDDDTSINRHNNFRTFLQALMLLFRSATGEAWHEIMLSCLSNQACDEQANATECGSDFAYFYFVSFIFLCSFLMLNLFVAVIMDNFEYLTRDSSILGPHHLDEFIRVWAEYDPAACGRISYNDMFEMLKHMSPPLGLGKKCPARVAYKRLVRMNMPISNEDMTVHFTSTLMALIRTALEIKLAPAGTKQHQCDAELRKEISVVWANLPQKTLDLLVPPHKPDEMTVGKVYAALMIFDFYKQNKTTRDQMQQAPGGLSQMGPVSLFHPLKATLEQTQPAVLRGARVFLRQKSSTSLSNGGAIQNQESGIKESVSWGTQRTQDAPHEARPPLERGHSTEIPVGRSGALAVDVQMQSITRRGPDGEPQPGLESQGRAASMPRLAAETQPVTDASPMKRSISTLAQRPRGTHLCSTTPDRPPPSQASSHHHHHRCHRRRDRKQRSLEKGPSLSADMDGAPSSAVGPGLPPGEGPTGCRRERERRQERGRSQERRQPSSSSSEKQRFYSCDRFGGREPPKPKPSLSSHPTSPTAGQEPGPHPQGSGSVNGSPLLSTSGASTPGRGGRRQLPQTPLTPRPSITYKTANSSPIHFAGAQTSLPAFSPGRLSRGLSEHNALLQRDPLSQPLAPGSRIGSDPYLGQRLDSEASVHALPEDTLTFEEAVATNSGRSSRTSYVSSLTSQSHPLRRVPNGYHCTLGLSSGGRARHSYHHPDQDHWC
T4 sequence (Q02410 whole entry, the tested form may be a part): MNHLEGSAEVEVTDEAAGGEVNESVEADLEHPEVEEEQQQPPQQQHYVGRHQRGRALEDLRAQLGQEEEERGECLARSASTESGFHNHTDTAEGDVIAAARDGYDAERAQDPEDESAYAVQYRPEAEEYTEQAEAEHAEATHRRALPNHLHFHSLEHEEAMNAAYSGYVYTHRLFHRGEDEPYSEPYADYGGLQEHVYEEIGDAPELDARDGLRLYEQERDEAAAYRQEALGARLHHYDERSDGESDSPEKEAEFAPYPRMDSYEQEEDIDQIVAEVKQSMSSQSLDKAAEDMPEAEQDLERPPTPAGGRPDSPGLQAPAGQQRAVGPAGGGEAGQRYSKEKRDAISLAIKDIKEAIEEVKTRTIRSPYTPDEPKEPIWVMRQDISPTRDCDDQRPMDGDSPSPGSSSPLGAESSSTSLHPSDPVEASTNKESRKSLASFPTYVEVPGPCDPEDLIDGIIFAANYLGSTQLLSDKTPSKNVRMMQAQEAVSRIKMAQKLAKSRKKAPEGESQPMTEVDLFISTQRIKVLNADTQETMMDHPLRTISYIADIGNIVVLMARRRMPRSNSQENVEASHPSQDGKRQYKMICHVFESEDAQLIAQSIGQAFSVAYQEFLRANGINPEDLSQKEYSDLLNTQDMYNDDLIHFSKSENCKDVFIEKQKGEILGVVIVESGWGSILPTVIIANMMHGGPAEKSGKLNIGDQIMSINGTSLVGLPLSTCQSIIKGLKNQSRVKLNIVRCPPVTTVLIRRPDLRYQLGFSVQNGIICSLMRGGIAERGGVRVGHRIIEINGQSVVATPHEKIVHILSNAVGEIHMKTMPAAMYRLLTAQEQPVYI
Protein Rev, sequence (P04618 whole entry): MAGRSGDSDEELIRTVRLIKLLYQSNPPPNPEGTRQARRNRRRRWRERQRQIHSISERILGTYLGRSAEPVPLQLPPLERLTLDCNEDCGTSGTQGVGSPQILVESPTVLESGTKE
Trypsin, sequence (P00761 whole entry): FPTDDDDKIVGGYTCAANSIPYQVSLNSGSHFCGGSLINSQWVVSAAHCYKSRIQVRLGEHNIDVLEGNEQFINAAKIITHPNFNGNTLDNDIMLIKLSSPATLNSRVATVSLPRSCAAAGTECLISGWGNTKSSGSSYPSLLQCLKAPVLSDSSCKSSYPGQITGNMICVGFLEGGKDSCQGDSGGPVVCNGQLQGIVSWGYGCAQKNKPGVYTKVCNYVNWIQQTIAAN
G2/mitotic-specific cyclin-B1, sequence (P14635 whole entry): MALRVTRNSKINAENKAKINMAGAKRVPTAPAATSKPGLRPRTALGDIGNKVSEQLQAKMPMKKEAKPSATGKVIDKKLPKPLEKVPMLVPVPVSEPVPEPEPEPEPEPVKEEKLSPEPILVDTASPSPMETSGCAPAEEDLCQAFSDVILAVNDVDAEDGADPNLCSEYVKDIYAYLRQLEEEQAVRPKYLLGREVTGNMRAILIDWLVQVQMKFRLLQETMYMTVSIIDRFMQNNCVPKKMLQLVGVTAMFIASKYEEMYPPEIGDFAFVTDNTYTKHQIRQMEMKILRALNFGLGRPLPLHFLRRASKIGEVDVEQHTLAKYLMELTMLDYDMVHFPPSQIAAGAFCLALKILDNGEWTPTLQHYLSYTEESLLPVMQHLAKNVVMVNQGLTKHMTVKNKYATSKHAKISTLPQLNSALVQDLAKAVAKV
Sphingosine 1-phosphate receptor 2, sequence (O95136 whole entry): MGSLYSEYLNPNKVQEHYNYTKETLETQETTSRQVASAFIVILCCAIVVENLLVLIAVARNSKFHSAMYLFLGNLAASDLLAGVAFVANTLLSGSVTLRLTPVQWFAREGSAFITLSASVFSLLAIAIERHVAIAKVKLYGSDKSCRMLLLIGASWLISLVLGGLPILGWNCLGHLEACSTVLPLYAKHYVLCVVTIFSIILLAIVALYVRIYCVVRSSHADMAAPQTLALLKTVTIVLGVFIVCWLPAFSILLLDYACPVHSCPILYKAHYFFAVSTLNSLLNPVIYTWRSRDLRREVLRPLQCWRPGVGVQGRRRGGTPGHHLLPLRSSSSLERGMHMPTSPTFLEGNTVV
Wee1-like protein kinase, sequence (P30291 whole entry): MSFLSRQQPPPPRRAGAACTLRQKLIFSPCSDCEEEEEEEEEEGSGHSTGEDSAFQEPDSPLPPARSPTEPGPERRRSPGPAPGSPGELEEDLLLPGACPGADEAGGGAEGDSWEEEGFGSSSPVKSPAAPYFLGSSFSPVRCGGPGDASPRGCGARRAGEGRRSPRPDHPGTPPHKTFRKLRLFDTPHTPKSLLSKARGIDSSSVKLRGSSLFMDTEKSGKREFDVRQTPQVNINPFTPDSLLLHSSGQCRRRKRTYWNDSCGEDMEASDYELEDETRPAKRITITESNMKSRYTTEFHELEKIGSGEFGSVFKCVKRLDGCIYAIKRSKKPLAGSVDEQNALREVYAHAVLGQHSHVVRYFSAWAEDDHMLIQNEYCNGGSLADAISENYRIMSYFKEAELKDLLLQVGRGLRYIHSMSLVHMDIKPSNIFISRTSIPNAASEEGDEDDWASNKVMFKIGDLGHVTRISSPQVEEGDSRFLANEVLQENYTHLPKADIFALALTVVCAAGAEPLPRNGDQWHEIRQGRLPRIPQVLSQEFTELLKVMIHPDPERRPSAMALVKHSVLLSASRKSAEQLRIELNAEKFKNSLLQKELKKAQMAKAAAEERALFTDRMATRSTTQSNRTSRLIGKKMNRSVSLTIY

Nc1nc2ccccc2n1S(=O)(=O)c1ccc([N+](=O)[O-])cc1
IC50 (Tumor necrosis factor): > 20 µM (inactive)
IC50 (Interleukin-8): > 5 µM (inactive)
IC50 (HEK293): > 20 µM (inactive)

COc1cccc(-c2ccc(-c3noc(-c4ccccc4F)n3)c(OC)n2)c1
AC50 (Trypsin): 14.3 µM (active)

COc1ccc(C(=O)NC(CC(=O)O)c2cccc(Cl)c2)cc1 (centres undefined)
IC50 (Hexokinase): > 25 µM (inactive)

O=C(O)CN1C(=O)/C(=C\c2cn(-c3ccccc3)nc2-c2ccccc2)SC1=S
EC50 (BJ [1]): 31.1 µM (active)
EC50 (BJ [2]): > 150 µM (not active)
IC50 [3]: > 99 µM (inactive)
EC50 [4]: 41.4 µM (active)
EC50 (BJ [5]): > 150 µM (not active)

CCCCCCCCCn1c2c(c(=N)c3c1CCC3)CCC2
EC50 (BJ [1]): 1.15 µM (active)
EC50 [6]: 0.561 µM (active)
EC50 (BJ [2]): 8.37 µM (inconclusive)
IC50 [7]: 9.03 µM (active)
EC50 [8]: 0.728 µM (active)
IC50 [9]: 47.8 µM (inactive)
EC50 [4]: 3.16 µM (active)
IC50 [10]: 9.02 µM (active)
EC50 (BJ [5]): 2.07 µM (active)
IC50 [11]: 7.18 µM (active)

O=C1NCCCc2c1oc1ccc(O)cc21
AC50 [12]: 10.7 µM (active)

Cc1ccc(NC(=O)C[S+]([O-])CC(=O)NCC2CCCO2)cc1 (centres undefined)
IC50 (Coagulation factor XII): > 50 µM (inactive)

O=C1C2(Cl)C3(Cl)C4(Cl)C(Cl)(Cl)C5(Cl)C3(Cl)C1(Cl)C5(Cl)C24Cl (centres undefined) [KEPONE]
CC50 [13]: 8.69 µM (active)
AC50 [14]: 2.68 µM (active)
CC50 [15]: 22.6 µM (active)

O=C1C=C(c2ccccc2)C(=O)N1Nc1ccccc1
IC50 [16]: 20.4 µM (active)
IC50 [17]: 1.68 µM (active)
EC50 [18]: > 112 µM (not active)
IC50 (Beta Lactamase): 18.7 µM (inactive)
EC50 [19]: 8.82 µM (active)
IC50 (Beta-galactosidase): > 66.6 µM (inactive)
IC50 [20]: 45.8 µM (active)

CN1CC2=Cc3ccccc3OC23Oc2ccccc2C=C3C1
EC50 [6]: 23 µM (active)
IC50 (Protein Rev): > 75.4 µM (not active)
EC50 [8]: 25 µM (active)
IC50 [21]: 2.55 µM (active)
IC50 [22]: > 59.6 µM (inactive)
IC50 [23]: 3.5 µM (active)
IC50 (Bcl-2-related protein A1): > 20 µM (inactive)
CC50 (Vero): 18.9 µM (active)

Cc1nn(C)c(Sc2ccccn2)c1[N+](=O)[O-]
EC50 [24]: > 195 µM (not active)
EC50 [25]: > 195 µM (inactive)
EC50 [26]: > 195 µM (not active)
EC50 [27]: 1.7 µM (active)
EC50 [28]: 88.4 µM (active)
EC50 (H4): > 120 µM (not active)

Cc1cc(O)nc(-n2nc(C)cc2NC(=O)c2ccccc2Cl)n1
EC50 (Wee1-like protein kinase): > 16.6 µM (active)
EC50 [29]: > 49.7 µM (inactive)

COc1ccc(Cl)cc1NC(=O)c1cc(C2CC2)on1
EC50 [30]: 0.00455 µM (active)
